For this test, the target named is T1, Recombinant human liver GK1 (GST-GK) (Homo sapiens, UniProt P35557).
T1 construct: made in house; host or cells: E. coli
T1 sequence (P35557 1-466 isoform P35557-2): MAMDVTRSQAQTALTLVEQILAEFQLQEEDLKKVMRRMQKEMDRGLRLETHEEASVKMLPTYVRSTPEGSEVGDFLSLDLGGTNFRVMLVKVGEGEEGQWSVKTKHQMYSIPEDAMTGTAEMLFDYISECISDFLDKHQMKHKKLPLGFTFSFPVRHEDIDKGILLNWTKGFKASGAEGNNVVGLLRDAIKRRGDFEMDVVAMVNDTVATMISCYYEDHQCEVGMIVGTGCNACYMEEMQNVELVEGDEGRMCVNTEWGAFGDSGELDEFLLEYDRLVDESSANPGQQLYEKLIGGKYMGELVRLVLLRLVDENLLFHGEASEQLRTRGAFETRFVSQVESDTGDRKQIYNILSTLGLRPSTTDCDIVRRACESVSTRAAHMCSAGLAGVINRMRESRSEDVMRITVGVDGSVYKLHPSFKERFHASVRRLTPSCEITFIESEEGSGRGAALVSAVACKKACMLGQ
Description: In vitro glucokinase activity assay (G6PDH-coupled, NADH, OD340). Type of test: biochemical. As to conditions: for SC1.5: concentration of activator that produced a 50% increase in the activity of GK, 5 mM D-glucose, 30° C. The gist of the method: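 GST-fused human liver GK1 from E. coli, run at 30° C. in pH 7.1 HEPES with 5 mM glucose, 1 mM ATP and 10% DMSO, coupled via G6PDH to NADH. OD340 rate measured after enzyme start; SC1.5 is the activator concentration raising activity 50% over DMSO control.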

SMILES strings stand for the structures.

As to `CN(C)CCS(=O)(=O)c1ccc(C(CC2CCCC2)c2cc3cccnc3[nH]2)cc1` (stereo not drawn) [Example 92, (2-{4-[2-Cyclopentyl-1-(1H-pyrrolo[2,3-b]pyridin-2-yl)-ethyl]-benzenesulfonyl}-ethyl)-dimethyl-amine], the SC1.5 worked out at 1.1 µM.
Still for that read-out and setting: under `O=S(=O)(CCN1CCOCC1)c1ccc(C(CC2CCCC2)c2cc3cccnc3[nH]2)cc1` (stereo not drawn) [Example 93, 2-{2-Cyclopentyl-1-[4-(2-morpholin-4-yl-ethanesulfonyl)-phenyl]-ethyl}-1H-pyrrolo[2,3-b]pyridine] stands 1.7 µM; under `CC(C)(O)c1ccc(C(CC2CCCC2)c2cc3cccnc3[nH]2)c(F)c1` (stereo not drawn) [Example 94, 2-{4-[2-Cyclopentyl-1-(1H-pyrrolo[2,3-b]pyridin-2-yl)-ethyl]-3-fluoro-phenyl}-propan-2-ol], 2.3 µM; under `CC(C)(O)c1ccc(C(CC2CCOCC2)c2cc3cc(F)cnc3[nH]2)cc1F` (stereo not drawn) [Example 97, 2-{2-Fluoro-4-[1-(5-fluoro-1H-pyrrolo[2,3-b]pyridin-2-yl)-2-(tetrahydro-pyran-4-yl)-ethyl]-phenyl}-propan-2-ol], 2.2 µM.
The same measure, in the same setting: the value for `CC(C)CC(c1ccc(S(C)(=O)=O)cc1)c1cc2cc(F)cnc2[nH]1` (stereo not drawn) [Example 99, 5-Fluoro-2-[1-(4-methanesulfonyl-phenyl)-3-methyl-butyl]-1H-pyrrolo[2,3-b]pyridine] was 0.394 µM; that for `CC(C)CC(c1ccc(S(=O)(=O)CCO)cc1)c1cc2cc(F)cnc2[nH]1` (stereo not drawn) [Example 101] was 0.854 µM; that for `CC(C)(O)c1ccc(C(CC2CCCC2)c2cc3cc(F)cnc3[nH]2)cc1F` (stereo not drawn) [Example 103, 2-{4-[2-Cyclopentyl-1-(5-fluoro-1H-pyrrolo[2,3-b]pyridin-2-yl)-ethyl]-2-fluoro-phenyl}-propan-2-ol] was 0.18 µM.
Still for that read-out and setting: the value for `CC(C)CC(c1ccc(C(C)(C)O)c(F)c1)c1cc2cc(F)cnc2[nH]1` (stereo not drawn) [Example 105, 2-{2-Fluoro-4-[1-(5-fluoro-1H-pyrrolo[2,3-b]pyridin-2-yl)-3-methyl-butyl]-phenyl}-propan-2-ol] was 0.368 µM; that for `CN(C)CC(=O)Nc1cnc2[nH]c(C(CC3CCCC3)c3ccc(S(C)(=O)=O)cc3)cc2c1` (stereo not drawn) [Example 107, N-{2-[2-Cyclopentyl-1-(4-methanesulfonyl-phenyl)-ethyl]-1H-pyrrolo[2,3-b]pyridin-5-yl}-2-dimethylamino-acetamide] was 9.4 µM.
As to `CCOc1ccc(C(CC2CCCC2)c2cc3cccnc3[nH]2)cn1` (stereo not drawn) [Example 108, 2-[2-Cyclopentyl-1-(6-ethoxy-pyridin-3-yl)-ethyl]-1H-pyrrolo[2,3-b]pyridine], the SC1.5 was 2.4 µM.
Consider `c1cncc(C(CC2CCCC2)c2cc3cccnc3[nH]2)c1` (stereo not drawn) [Example 110, 2-(2-Cyclopentyl-1-pyridin-3-yl-ethyl)-1H-pyrrolo[2,3-b]pyridine], for which the SC1.5 was 14.1 µM.
Still for that read-out and setting: the value for `CS(=O)(=O)c1ccc(C(CC2CCCC2)c2cc3cc(Cl)cnc3[nH]2)cc1` (stereo not drawn) [Example 111, 5-Chloro-2-[2-cyclopentyl-1-(4-methanesulfonyl-phenyl)-ethyl]-1H-pyrrolo[2,3-b]pyridine] was 0.15 µM; that for `CS(=O)(=O)c1ccc(C(CC2CCCC2)c2cc3cccnc3[nH]2)nc1` (stereo not drawn) [Example 112, 2-[2-Cyclopentyl-1-(5-methanesulfonyl-pyridin-2-yl)-ethyl]-1H-pyrrolo[2,3-b]pyridine] was 0.587 µM.
Consider `COc1ccc2cc(C(CC3CCCC3)c3ccc(S(C)(=O)=O)cc3)[nH]c2n1` (stereo not drawn) [Example 113, 2-[2-Cyclopentyl-1-(4-methanesulfonyl-phenyl)-ethyl]-6-methoxy-1H-pyrrolo[2,3-b]pyridine], for which the SC1.5 came to 1.8 µM.
Still for that read-out and setting: under `CS(=O)(=O)c1ccc(C(CC2CCOCC2)c2cc3cc(Cl)cnc3[nH]2)cc1` (stereo not drawn) [Example 114, 5-Chloro-2-[1-(4-methanesulfonyl-phenyl)-2-(tetrahydro-pyran-4-yl)-ethyl]-1H-pyrrolo[2,3-b]pyridine] stands 2.2 µM; under `CS(=O)(=O)c1ccc(C(O)(CC2CCC2)c2cc3cccnc3[nH]2)cc1` (stereo not drawn) [Example 115, 2-Cyclobutyl-1-(4-methanesulfonyl-phenyl)-1-(1H-pyrrolo[2,3-]pyridin-2-yl)-ethanol], 7.4 µM.
For the compound `CS(=O)(=O)c1ccc(/C(=C\C2CCCC2)c2cc3cc(F)cnc3[nH]2)cc1` [Example 116, 2-[(E)-2-cyclopentyl-1-(4-methanesulfonyl-phenyl)-vinyl]-5-fluoro-1H-pyrrolo[2,3-b]pyridine], the SC1.5 amounted to 0.009 µM.
Regarding `CS(=O)(=O)c1ccc(C(CC2CCCC2)c2cc3cc(F)cnc3[nH]2)cc1` (stereo not drawn) [Example 117, 2-[2-Cyclopentyl-1-(4-methanesulfonyl-phenyl)-ethyl]-5-fluoro-1H-pyrrolo[2,3-b]pyridine], the SC1.5 is 0.071 µM.
Regarding `CC(C)(O)c1ccc(C(CC2CCCC2)c2cc3cc(F)cnc3[nH]2)cc1` (stereo not drawn) [Example 119, 2-{4-[2-Cyclopentyl-1-(5-fluoro-1H-pyrrolo[2,3-b]pyridin-2-yl)-ethyl]-phenyl}-propan-2-ol], the SC1.5 turned out to be 0.78 µM.
`CC(C)c1ccc(C(CC2CCCC2)c2cc3cc(F)cnc3[nH]2)cc1` (stereo not drawn) [Example 121, 2-[2-Cyclopentyl-1-(4-isopropyl-phenyl)-ethyl]-5-fluoro-1H-pyrrolo[2,3-b]pyridine]: the SC1.5 is 0.458 µM.
As to `CS(=O)(=O)c1ccc(C(CC2CCOCC2)c2cc3cc(F)cnc3[nH]2)cc1` (stereo not drawn) [Example 123, 5-Fluoro-2-[1-(4-methanesulfonyl-phenyl)-2-(tetrahydro-pyran-4-yl)-ethyl]-1H-pyrrolo[2,3-b]pyridine], the SC1.5 was found to be 0.47 µM.
In the case of `CCS(=O)(=O)c1cnc2[nH]c(C(CC3CCCC3)c3ccc(S(C)(=O)=O)cc3)cc2c1` (stereo not drawn) [Example 125, 2-[2-Cyclopentyl-1-(4-methanesulfonyl-phenyl)-ethyl]-5-ethanesulfonyl-1H-pyrrolo[2,3-b]pyridine], the “fold activation of GK” value (at 30 μM) was determined as 1.4 fold at 30.
In the case of `CS(=O)(=O)c1ccc(C(CC2CCCC2)c2cc3cc(C(F)(F)F)cnc3[nH]2)cc1` (stereo not drawn) [Example 126, 2-[2-Cyclopentyl-1-(4-methanesulfonyl-phenyl)-ethyl]-5-trifluoromethyl-1H-pyrrolo[2,3-b]pyridine], the SC1.5 is 2.0 µM.
For `Cc1cnc2[nH]c(C(CC3CCCC3)c3ccc(S(C)(=O)=O)cc3)cc2c1` (stereo not drawn) [Example 128, 2-[2-Cyclopentyl-1-(4-methanesulfonyl-phenyl)-ethyl]-5-methyl-1H-pyrrolo[2,3-b]pyridine], the SC1.5 came out at 0.85 µM.
The same measure, in the same setting: the value for `Cc1cccc(C(CC(C)C)c2cc3cccnc3[nH]2)c1` (stereo not drawn) [Example 130, 2-(3-Methyl-1-m-tolyl-butyl)-1H-pyrrolo[2,3-b]pyridine] was 7.8 µM.
On the same count and under the same terms, under `CC(C)CC(c1cccc(Cl)c1)c1cc2cccnc2[nH]1` (stereo not drawn) [Example 131, 2-(1-(3-Chloro-phenyl)-3-methyl-butyl)-1H-pyrrolo[2,3-b]pyridine] stands 9.9 µM; under `CC(C)CC(c1cccc(F)c1)c1cc2cccnc2[nH]1` (stereo not drawn) [Example 132, 2-(1-(3-Fluoro-phenyl)-3-methyl-butyl)-1H-pyrrolo[2,3-b]pyridine], 10.9 µM.

Source of the values: patent US8222416B2, “Azaindole glucokinase activators” (Hoffmann-La Roche Inc., priority 2009, dated 2012).
